Results reported in patent US20090156646A1, “PYRIDYLPHENOL COMPOUND AND USE THEREOF” (TAKEDA PHARMACEUTICAL COMPANY LIMITED, priority 2005, published 2009).
Counter-ions that a name gives are not always drawn.

tested on: not given; assay: not given; conditions: not given

Row | melting point | Structure (SMILES)
1 | 162 to 164 °C | CC(C)(C)OC(=O)c1c(-c2cccc(N)c2)cc(-c2ccccc2O)nc1NC(=O)c1ccccc1 [Example 62, tert-butyl 4-(3-aminophenyl)-2-(benzoylamino)-6-(2-hydroxyphenyl)nicotinate]
2 | 195 to 197 °C | CCCC(CC(=O)Nc1cccc(-c2cc(-c3ccc(F)cc3O)nc(NC(=O)c3ccco3)c2C#N)c1)N(CC)CC (centres unmarked) (as salt: hydrochloride) [Example 317, N-[3-cyano-4-(3-{[3-(diethylamino)hexanoyl]amino}phenyl)-6-(4-fluoro-2-hydroxyphenyl)pyridin-2-yl]-2-furamide hydrochloride]
3 | 247 to 249 °C | CC(C)(C)OC(=O)c1c(-c2cccc(NC(=O)CCN)c2)cc(-c2ccccc2O)nc1NC(=O)c1ccccc1 [Example 82, tert-butyl 4-[3-(β-alanylamino)phenyl]-2-(benzoylamino)-6-(2-hydroxyphenyl) nicotinate]
4 | 200 to 206 °C | N#Cc1c(-c2cccc(NC(=O)[C@H](N)Cc3cnc[nH]3)c2)cc(-c2ccc(Cl)cc2O)nc1NC(=O)c1ccco1 (as salt: hydrochloride) [Example 253, N-{3-[6-(4-chloro-2-hydroxyphenyl)-3-cyano-2-(2-furoylamino)pyridin-4-yl]phenyl}-D-histidinamide dihydrochloride]

The remaining lines, values behind:

Row | Structure (SMILES) | melting point
5 | Cl.N#Cc1c(-c2cccc(C(=O)N3CCNCC3)c2)cc(-c2ccccc2O)nc1NC(=O)c1cccs1 | 232 to 236 °C
6 | Cl.N#Cc1c(-c2ccc(C(=O)NCCN)cc2)cc(-c2ccccc2O)nc1NC(=O)c1cccs1 | 202 to 208 °C
7 | CNCC(=O)Nc1cccc(-c2cc(-c3ccccc3O)nc(NC(=O)c3cccs3)c2C#N)c1.Cl | 248 to 254 °C
8 | Cl.N#Cc1c(-c2cccc(NC(=O)CCN)c2)cc(-c2ccc(Cl)cc2O)nc1NC(=O)c1ccccc1OC(F)(F)F | 218 to 223 °C
9 | CCOc1ccccc1C(=O)Nc1nc(-c2ccc(Cl)cc2O)cc(-c2cccc(NC(=O)CCN)c2)c1C#N.Cl | 240 to 244 °C
10 | Cl.N#Cc1c(-c2cccc(NC(=O)[C@@H]3CCCN3)c2)cc(-c2ccccc2O)nc1NC(=O)c1cccs1 | 210 to 218 °C
11 | N#Cc1c(-c2ccccc2C(=O)NCCN)cc(-c2ccccc2O)nc1NC(=O)c1cccs1 (as salt: hydrochloride) [Example 24, N-[4-(2-{[(2-aminoethyl)amino]carbonyl}phenyl)-3-cyano-6-(2-hydroxyphenyl)pyridin-2-yl]thiophene-2-carboxamide dihydrochloride] | 196 to 201 °C
12 | Cl.NCCC(=O)Nc1cccc(-c2cc(-c3ccccc3O)nc(NC(=O)c3ccccc3)c2C(=O)O)c1 | 250 to 253 °C
13 | COc1ccc(O)c(-c2cc(-c3cccc(NC(=O)CCN)c3)c(C#N)c(NC(=O)c3cccs3)n2)c1.Cl | 197 to 201 °C
14 | Cl.N#Cc1c(-c2cccc(N3CCCCC3)c2)cc(-c2ccc(F)cc2O)nc1NC(=O)c1ccco1 | 240 to 242 °C
15 | CN(C(=O)CN)c1cccc(-c2cc(-c3ccccc3O)nc(NC(=O)c3cccs3)c2C#N)c1 (as salt: hydrochloride) [Example 41, N-[3-cyano-4-{3-[glycyl(methyl)amino]phenyl}-6-(2-hydroxyphenyl)pyridin-2-yl]thiophene-2-carboxamide dihydrochloride] | 198 to 205 °C
16 | N#Cc1c(-c2cccc(NC(=O)CCN)c2)cc(-c2cc(Cl)ccc2O)nc1NC(=O)c1cccs1 (as salt: trifluoroacetate) [Example 46, N-{4-[3-(β-alanylamino)phenyl]-6-(5-chloro-2-hydroxyphenyl)-3-cyanopyridin-2-yl}thiophene-2-carboxamide trifluoroacetate] | 197 to 204 °C
17 | CNc1cccc(-c2cc(-c3ccccc3O)nc(NC(=O)c3cccs3)c2C#N)c1 [Example 39, N-{3-cyano-6-(2-hydroxyphenyl)-4-[3-(methylamino)phenyl]pyridin-2-yl}thiophene-2-carboxamide] | 227 to 230 °C
18 | CN(C)c1cccc(-c2cc(-c3ccccc3O)nc(NC(=O)c3cccs3)c2C#N)c1 [Example 38, N-{3-cyano-4-[3-(dimethylamino)phenyl]-6-(2-hydroxyphenyl)pyridin-2-yl}thiophene-2-carboxamide] | 230 to 231 °C
19 | N#Cc1c(-c2cccc(NC(=O)CCN)c2)cc(-c2ccc(Cl)cc2O)nc1NC(=O)c1cccs1 (as salt: trifluoroacetate) [Example 56, N-{4-[3-(β-alanylamino)phenyl]-6-(4-chloro-2-hydroxyphenyl)-3-cyanopyridin-2-yl}thiophene-2-carboxamide trifluoroacetate] | 206 to 209 °C
20 | N#Cc1c(-c2cccc(N)c2)cc(-c2ccccc2O)nc1NC(=O)C1CCCCC1 [Example 29, N-[4-(3-aminophenyl)-3-cyano-6-(2-hydroxyphenyl)pyridin-2-yl]cyclohexanecarboxamide] | 236 to 238 °C

molecular target: T1, human metastin receptor hOT7T175 (Homo sapiens, UniProt Q969F8, L364H); assay: binding inhibiting activity: 125I-metastin (40-54) binding to cell membrane fraction of h175 KB34 cells; conditions: room temperature 60 minutes, read-out: binding inhibiting activity, represented by the IC50 value
T1 construct: encoding the entire length of human metastin receptor hOT7T175; expressed in transfected cells; host or cells: CHO/dhFr- cells (ATCC #CRL-9096) stably transfected with pAKKO-hOT7T175; clone h175-16 was used as whole cells for FLIPR
Method: cDNA fragments (SEQ ID NO: 2) encoding the entire length of human metastin receptor hOT7T175 were incorporated into expression vector pAKKO1.11H to produce animal cell expression plasmids pAKKO-hOT7T175. CHO/dhFr-cells (ATCC, #CRL-9096) were seeded onto 6 cm culture dishes (Becton Dickinson) at a density of 0.3×10^6 cells/dish, and cultured in the conditions of 48 hours, 37° C. and 5% CO2. 5 μg pAKKO-hOT7T175 plasmid DNA was transfected to the resultant cells by a known method (described in Example 3 of WO 00/24890) using the Cellphect Transfection Kit (Amersham, #27-9268-01). The DNA-transfected cells were cultured in the Dulbecco's modified Eagle medium (DMEM) (Sigma, #D6046) containing 10% dialyzed FBS (Biowest, #S180D), 1× Non-Essential Amino Acid (Invitrogen, #11140-050) and 50 μg/ml Gentamycin (Invitrogen, #15750-060; and cell strains stably expressing the plasmid genes were selected. The obtained 41 clones were treated with the FLIPR assay (in accordance with the method described in Example 3 of WO 00/24890), and the reactivity to the human metastin […] (Nos. 40 to 54 of the human metastin sequence; Peptide Institute, Inc., #4389-v) was evaluated. In the end, h175 KB34 cell strains were selected. By substantially the same method, h175-16 cell strains were also produced.
The h175 KB34 cells were cultured to be on the stage of 40-50% confluency using a cell factory (Nunc, #164327), and then cells were recovered in the following method.
First, the medium was disposed, and the cells were washed twice with 200 ml EDTA/PBS(−). Another 200 ml of EDTA/PBS(−) was added, and the cells were kept still for 20 minutes at room temperature until being peeled off. The cells were recovered into four 50 ml tubes (Becton Dickinson, #352070), and centrifuged (2,000 rpm, 10 min., 4° C.) by a reduced performance centrifuge (TOMY, RL-101). The supernatant was disposed, and the pellets in the four tubes were each suspended with 10 ml EDTA/PBS(−) and collected into one tube (Becton Dickinson, #352070). The pellet was further centrifuged (2,000 rpm, 10 min., 4° C.). The resultant pellet was suspended with 20 ml ice-cooled homogenizer buffer [10 mM NaHCO3, 2 mM EGTA, 0.2 mM magnesium acetate, 10 μg/ml Leupeptin (Peptide Institute, Inc., #4041), 10 μg/ml E-64 (Peptide Institute, Inc., # 4096), 100 μg/ml o-phenanthroline (Dojindo Laboratories), 90 μg/ml PMSF (Wako Pure Chemical Industries, Ltd.), 10 μg/ml Pepstatin A (Peptide Institute, Inc., #4397), pH7.3]. The cell suspension was homogenized 3 times, each for 30 seconds, using a Polytron homogenizer. The resultant homogenate was centrifuged (2,500 rpm, 10 min, 4° C.) using a high performance refrigerated centrifuge (Hitachi, Ltd., CR26H). The supernatant was recovered into a super-centrifuge tube, and super-centrifuged (30,000 rpm, 60 min, 4° C.) using a super-centrifuge (Hitachi, Ltd., SCP70H). 3 ml homogenizer buffer was added to the resultant pellet, and the pellet was suspended by pipetting. 3 ml glycerol (Wako Pure Chemical Industries, Ltd.) was added to the resultant suspension and diluted 2-folds. The resultant substance was used as a cell membrane fraction of the h175 KB34 cells. Each […] of the membrane fraction was put into a 1.5 ml tube (Eppendorf, #0030120.086), stored in a freezer (−30 C) so as not to be frozen, and used for a binding assay.
An assay buffer was prepared on the day of the test by adding, to each 100 ml of an assay basic buffer [20 mM Tris, 2.5 mM Magnesium Acetate, 2 mM EGTA, pH 7.4], 1 mg Leupeptin (Peptide Institute, Inc., 4041), 1 mg E-64 (Peptide Institute, Inc., 4096), 10 mg o-phenanthroline (Dojindo Laboratories), 9 mg PMSF (Wako Pure Chemical Industries, Ltd.) and 1 mg Pepstatin A (Peptide Institute, Inc., 4397). The prepared assay buffer was stored at 4° C. until being used. When the measurement was to be performed with no BSA, the above-described assay buffer was used. […]

T1 sequence (Q969F8 whole entry L364H): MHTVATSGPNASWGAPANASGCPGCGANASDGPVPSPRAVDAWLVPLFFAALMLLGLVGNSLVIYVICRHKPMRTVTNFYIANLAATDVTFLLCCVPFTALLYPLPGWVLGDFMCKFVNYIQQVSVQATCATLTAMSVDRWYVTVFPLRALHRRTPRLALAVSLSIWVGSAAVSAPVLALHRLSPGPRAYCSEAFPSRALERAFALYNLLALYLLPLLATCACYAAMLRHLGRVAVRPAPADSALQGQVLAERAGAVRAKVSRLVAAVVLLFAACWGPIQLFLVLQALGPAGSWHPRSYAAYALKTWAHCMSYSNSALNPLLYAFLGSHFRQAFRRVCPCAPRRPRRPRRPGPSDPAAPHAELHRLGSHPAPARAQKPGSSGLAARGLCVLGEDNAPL

Row | IC50 | Structure (SMILES)
21 | ≤ 10 µM | N#Cc1c(N2CCCC(C(=O)NCCN)C2)cc(-c2ccccc2O)nc1NC(=O)c1ccco1 (centres unmarked) [Example 288, N-(2-aminoethyl)-1-[3-cyano-2-(2-furoylamino)-6-(2-hydroxyphenyl)pyridin-4-yl]piperidine-3-carboxamide hydrochloride]
22 | ≤ 10 µM | CN(C(=O)CN)c1cccc(-c2cc(-c3ccccc3O)nc(NC(=O)c3cccs3)c2C#N)c1 [Example 41, N-[3-cyano-4-{3-[glycyl(methyl)amino]phenyl}-6-(2-hydroxyphenyl)pyridin-2-yl]thiophene-2-carboxamide dihydrochloride]
23 | ≤ 10 µM | N#Cc1c(-c2cccc(NC(=O)CCN)c2)cc(-c2ccc(Cl)cc2O)nc1NC(=O)c1ccno1 [Example 251, N-[4-[3-(β-alanylamino)phenyl]-6-(4-chloro-2-hydroxyphenyl)-3-cyanopyridin-2-yl]isoxazole-5-carboxamide hydrochloride]
24 | ≤ 10 µM | N#Cc1c(-c2cccc(NC(=O)CCN)c2)cc(-c2ccc(Cl)cc2O)nc1NC(=O)c1cccs1 [Example 56, N-{4-[3-(β-alanylamino)phenyl]-6-(4-chloro-2-hydroxyphenyl)-3-cyanopyridin-2-yl}thiophene-2-carboxamide trifluoroacetate]
25 | ≤ 10 µM | CN(C)CC(=O)Nc1cccc(-c2cc(-c3ccc(F)cc3O)nc(NC(=O)c3ccco3)c2CN(C)C)c1 [Example 300, N-[3-[(dimethylamino)methyl]-4-{3-[(N,N-dimethylglycyl)amino]phenyl}-6-(4-fluoro-2-hydroxyphenyl)pyridin-2-yl]-2-furamide dihydrochloride]
26 | ≤ 10 µM | COc1c(NC(=O)CCN)cccc1-c1cc(-c2ccccc2O)nc(NC(=O)c2ccco2)c1C#N [Example 276, N-[4-[3-(β-alanylamino)-2-methoxyphenyl]-3-cyano-6-(2-hydroxyphenyl)pyridin-2-yl]-2-furamide hydrochloride]
